In ChEMBL document CHEMBL5365521, “Discovery of the Potent and Selective Inhaled Janus Kinase 1 Inhibitor AZD4604 and Its Preclinical Characterization” (J Med Chem, 2023):
Values after ≈ are worked out from the molar mass of the structure shown.

Assays:
[1] = Solubility in phosphate buffer at pH 7.4; assay type: physicochemical
[2] = Thermodynamic solubility of the compound in phosphate buffer at pH 6.5 measured after 24 hrs by HPLC-MS analysis; assay type: physicochemical; conditions: read-out: Therm_solubility
[3] = Plasma protein binding in human assessed as free fraction; assay type: ADME, cell-free
[4] = Thermodynamic solubility of the compound in phosphate buffer at pH 7.4 measured after 24 hrs by HPLC-MS analysis; assay type: physicochemical; conditions: read-out: Therm_solubility
[5] = Apparent permeability of compound across apical to basolateral side in human Caco-2 cells at pH 7.4; assay type: ADME, cell-based; conditions: Caco-2, pH 7.4
[6] = Distribution coefficient between 1-Octanol and aqueous phosphate buffer, logD of the compound at pH 7.4 by shake-flask method; assay type: physicochemical; conditions: 1-octanol/aqueous phosphate buffer, read-out: logD
[7] = AUC(0 to 24 hrs) in rat at 0.020 micromol/kg, IT; assay type: ADME; set-up: dose 0.02 µmol/kg, route it; conditions: in vivo, 0.02 µmol/kg
[8] = Drug uptake in lung of rat at 0.020 micromol/kg, IT; assay type: ADME, tissue-based; conditions: in vivo, other, dose 0.02 µmol/kg
[9] = Inhibition of JAK/STAT signaling pathway in human U-937 cells assessed as inhibition of IL-13 stimulated STAT6 phosphorylation; assay type: cell-based
[10] = Inhibition of JAK/STAT signaling pathway in human U-937 cells assessed as inhibition of IL-4 stimulated STAT6 phosphorylation; assay type: cell-based
[11] = biological target: Tyrosine-protein kinase JAK2 (Homo sapiens, UniProt O60674); assay: Inhibition of N-terminal GST-tagged human recombinant JAK2 (831 to 1132 residues) expressed in insect cells using 5FAM-GEEPLYWSFPAKKK-NH2 peptide as substrate incubated for 10 mins measured after 90 mins in presence of ATP by caliper mobility shift assay
[12] = biological target: Tyrosine-protein kinase JAK1 (Homo sapiens, UniProt P23458); assay: Inhibition of N-terminal GST-tagged human recombinant JAK1 (866 to 1154 residues) expressed in insect cells using FITC-C6-KKHTDDGYMPMSPGVA-NH peptide as substrate incubated for 10 mins measured after 90 mins in presence of ATP by caliper mobility shift assay
[13] = biological target: T1, Tyrosine-protein kinase JAK3 (Homo sapiens, UniProt P52333); assay: Inhibition of N-terminal GST-tagged human recombinant JAK3 (781 to 1124 residues) expressed in insect cells using 5FAM-GEEPLYWSFPAKKK-NH2 peptide as substrate incubated for 10 mins measured after 90 mins in presence of ATP by caliper mobility shift assay
T1 sequence (P52333 whole entry): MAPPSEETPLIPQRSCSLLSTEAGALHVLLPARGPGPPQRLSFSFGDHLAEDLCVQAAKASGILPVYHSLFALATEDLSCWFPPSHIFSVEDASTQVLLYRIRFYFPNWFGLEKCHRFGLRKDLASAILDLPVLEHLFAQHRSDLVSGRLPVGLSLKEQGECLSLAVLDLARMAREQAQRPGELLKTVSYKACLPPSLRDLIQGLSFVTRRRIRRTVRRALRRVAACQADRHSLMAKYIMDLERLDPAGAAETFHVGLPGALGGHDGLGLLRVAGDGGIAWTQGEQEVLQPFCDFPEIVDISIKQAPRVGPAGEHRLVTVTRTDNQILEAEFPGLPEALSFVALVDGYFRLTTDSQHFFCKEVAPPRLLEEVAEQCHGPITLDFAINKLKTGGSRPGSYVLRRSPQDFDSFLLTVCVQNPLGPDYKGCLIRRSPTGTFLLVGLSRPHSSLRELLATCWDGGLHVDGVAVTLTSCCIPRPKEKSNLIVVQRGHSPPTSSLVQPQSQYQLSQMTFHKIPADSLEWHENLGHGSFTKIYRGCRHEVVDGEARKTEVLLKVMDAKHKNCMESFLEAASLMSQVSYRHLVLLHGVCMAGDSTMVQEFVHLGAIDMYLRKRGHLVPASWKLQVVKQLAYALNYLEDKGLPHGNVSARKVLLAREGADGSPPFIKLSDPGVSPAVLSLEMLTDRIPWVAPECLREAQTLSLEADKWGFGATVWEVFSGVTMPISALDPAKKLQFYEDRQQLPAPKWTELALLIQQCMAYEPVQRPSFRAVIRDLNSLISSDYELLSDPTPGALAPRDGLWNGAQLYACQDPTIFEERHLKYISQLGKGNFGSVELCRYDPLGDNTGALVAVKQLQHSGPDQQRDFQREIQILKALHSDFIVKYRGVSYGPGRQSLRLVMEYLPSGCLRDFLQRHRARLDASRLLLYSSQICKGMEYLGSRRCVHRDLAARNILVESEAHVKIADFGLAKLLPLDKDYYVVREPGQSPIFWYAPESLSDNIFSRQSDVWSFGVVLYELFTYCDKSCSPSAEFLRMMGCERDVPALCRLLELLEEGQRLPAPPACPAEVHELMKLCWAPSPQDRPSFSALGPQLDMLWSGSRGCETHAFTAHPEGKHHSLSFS

[14] = Efflux ratio of apparent permeability across apical to basolateral side in human Caco-2 cells at pH 7.4; assay type: ADME, cell-based; conditions: Caco-2, pH 7.4
[15] = Volume of distribution at steady state in Han Wistar rat at 0.5 mg/kg, iv; assay type: ADME, organism-based; conditions: in vivo, read-out: Vdss

Chain of Tyrosine-protein kinase JAK1 (P23458 whole entry, the tested form may be a part): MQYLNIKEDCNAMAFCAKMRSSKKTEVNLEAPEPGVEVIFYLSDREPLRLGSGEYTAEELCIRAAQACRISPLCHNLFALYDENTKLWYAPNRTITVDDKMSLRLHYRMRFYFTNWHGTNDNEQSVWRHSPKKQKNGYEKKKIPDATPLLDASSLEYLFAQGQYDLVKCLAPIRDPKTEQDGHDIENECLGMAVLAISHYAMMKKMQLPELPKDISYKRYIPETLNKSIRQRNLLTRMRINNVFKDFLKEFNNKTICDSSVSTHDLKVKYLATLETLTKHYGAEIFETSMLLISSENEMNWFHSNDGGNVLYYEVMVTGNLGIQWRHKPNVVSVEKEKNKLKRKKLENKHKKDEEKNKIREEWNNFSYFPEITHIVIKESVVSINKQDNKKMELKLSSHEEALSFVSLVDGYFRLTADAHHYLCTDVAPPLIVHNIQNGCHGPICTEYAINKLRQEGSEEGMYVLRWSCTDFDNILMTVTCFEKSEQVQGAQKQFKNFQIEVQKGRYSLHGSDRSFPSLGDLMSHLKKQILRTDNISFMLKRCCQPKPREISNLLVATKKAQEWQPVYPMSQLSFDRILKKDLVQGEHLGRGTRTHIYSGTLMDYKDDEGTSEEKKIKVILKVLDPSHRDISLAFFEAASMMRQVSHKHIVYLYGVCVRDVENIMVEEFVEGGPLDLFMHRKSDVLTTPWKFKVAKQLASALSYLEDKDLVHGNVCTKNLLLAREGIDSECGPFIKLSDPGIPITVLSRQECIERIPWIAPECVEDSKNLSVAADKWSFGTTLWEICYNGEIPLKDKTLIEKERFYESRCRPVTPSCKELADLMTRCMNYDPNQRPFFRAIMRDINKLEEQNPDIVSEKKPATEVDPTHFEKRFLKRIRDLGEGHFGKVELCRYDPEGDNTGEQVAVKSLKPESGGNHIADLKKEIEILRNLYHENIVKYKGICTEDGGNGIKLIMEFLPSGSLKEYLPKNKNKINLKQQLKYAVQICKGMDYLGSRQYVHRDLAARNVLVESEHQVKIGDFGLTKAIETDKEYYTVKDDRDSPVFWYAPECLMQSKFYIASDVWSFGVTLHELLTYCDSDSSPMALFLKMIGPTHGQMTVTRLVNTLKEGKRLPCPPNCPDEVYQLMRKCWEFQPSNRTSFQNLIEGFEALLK
Chain of Tyrosine-protein kinase JAK2 (O60674 whole entry, the tested form may be a part): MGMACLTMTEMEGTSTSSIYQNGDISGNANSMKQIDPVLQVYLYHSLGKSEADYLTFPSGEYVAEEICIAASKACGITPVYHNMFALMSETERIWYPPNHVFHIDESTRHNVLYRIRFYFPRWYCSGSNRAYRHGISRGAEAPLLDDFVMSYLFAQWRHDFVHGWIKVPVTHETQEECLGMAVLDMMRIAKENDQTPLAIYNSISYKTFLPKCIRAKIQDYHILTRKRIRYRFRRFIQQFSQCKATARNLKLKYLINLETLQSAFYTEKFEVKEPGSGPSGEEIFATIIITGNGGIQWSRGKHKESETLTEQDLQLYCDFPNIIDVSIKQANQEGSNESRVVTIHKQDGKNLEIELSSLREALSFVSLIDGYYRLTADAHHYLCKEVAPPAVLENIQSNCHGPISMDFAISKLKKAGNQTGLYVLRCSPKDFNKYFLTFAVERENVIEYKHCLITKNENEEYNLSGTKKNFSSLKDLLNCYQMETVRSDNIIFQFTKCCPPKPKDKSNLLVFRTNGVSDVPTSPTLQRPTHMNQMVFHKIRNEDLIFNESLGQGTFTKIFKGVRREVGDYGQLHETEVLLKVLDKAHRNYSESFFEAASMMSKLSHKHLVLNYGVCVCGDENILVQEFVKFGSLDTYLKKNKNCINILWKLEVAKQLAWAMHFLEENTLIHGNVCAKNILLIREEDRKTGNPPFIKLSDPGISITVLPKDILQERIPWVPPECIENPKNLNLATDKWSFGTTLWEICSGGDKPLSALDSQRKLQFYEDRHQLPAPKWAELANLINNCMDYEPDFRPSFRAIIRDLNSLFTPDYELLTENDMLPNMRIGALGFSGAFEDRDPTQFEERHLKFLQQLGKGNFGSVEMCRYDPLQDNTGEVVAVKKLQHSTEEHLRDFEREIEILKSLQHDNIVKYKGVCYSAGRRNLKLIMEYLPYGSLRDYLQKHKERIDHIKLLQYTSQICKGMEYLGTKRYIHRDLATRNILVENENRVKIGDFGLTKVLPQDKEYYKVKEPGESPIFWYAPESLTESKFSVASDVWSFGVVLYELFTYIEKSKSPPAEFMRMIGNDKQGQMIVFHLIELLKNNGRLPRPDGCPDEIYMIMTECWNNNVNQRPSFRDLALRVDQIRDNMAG

| solubility [1] | solubility thermodynamic at 24 h [2] | fraction unbound [3] | solubility thermodynamic at 24 h [4] | Papp A→B [5] | logD [6] | AUC(0-t) [7] | Drug uptake [8] | IC50 [9] | IC50 [10] | IC50 [11] | IC50 [12] | IC50 [13] | efflux ratio [14] | Vd [15] | SMILES |
| --- | --- | --- | --- | --- | --- | --- | --- | --- | --- | --- | --- | --- | --- | --- | --- |
| 38 µM (≈ 22.6 µg/mL) | 289 µM (≈ 172 µg/mL) | 0.09 | 40 µM (≈ 23.8 µg/mL) | 2.3 ×10⁻⁶ cm/s | 2.4 | 0.7 µM·h | Active | 18 nM | 13 nM |  |  |  |  |  | COC[C@H](C(=O)Nc1cccc2c(-c3nc(Nc4cccc(S(C)(=O)=O)c4F)ncc3C)c[nH]c12)N1CCN(C)CC1 |
| 14 µM (≈ 7.97 µg/mL) |  | 0.06 |  |  | 2.7 |  |  | 56 nM | 42 nM | 17500 nM | 20 nM | > 30000 nM |  |  | C[C@H](C(=O)Nc1cccc2c(-c3nc(Nc4cccc(S(C)(=O)=O)c4F)ncc3F)c[nH]c12)N1CCN(C)CC1 |
| 15 µM (≈ 8.49 µg/mL) |  | 0.06 | 15 µM (≈ 8.49 µg/mL) | 4.5 ×10⁻⁶ cm/s | 2.5 | 1.5 µM·h | Active | 32 nM | 22 nM |  | ≤ 4 nM |  | 4.9 | 9.2 L/kg | Cc1cnc(Nc2cccc(S(C)(=O)=O)c2F)nc1-c1c[nH]c2c(NC(=O)[C@@H](C)N3CCN(C)CC3)cccc12 |
| 9 µM (≈ 5.25 µg/mL) |  | 0.05 |  |  | 3.3 |  |  | 43 nM | 27 nM |  | ≤ 3 nM |  |  |  | CC[C@H](C(=O)Nc1cccc2c(-c3nc(Nc4cccc(S(C)(=O)=O)c4F)ncc3F)c[nH]c12)N1CCN(C)CC1 |
